Series [1] can be described thus: Determination of metabolic stability with human liver microsomes. Particulars: pooled human liver microsomes, 37° C., test compound 1 μM, NADPH. (Liver microsomes are vesicles of endoplasmic reticulum, rich in cytochrome P450 enzymes.)
Method: (§1) Determination of Metabolic Stability with Human Liver Microsomes
(§2) The metabolic degradation of the test compound is assayed at 37° C. with pooled human liver microsomes. The final incubation volume of 100 μl per time point contains TRIS buffer pH 7.6 (0.1 M), magnesium chloride (5 mM), microsomal protein (1 mg/ml) and the test compound at a final concentration of 1 μM. Following a short preincubation period at 37° C., the reactions are initiated by addition of beta-nicotinamide adenine dinucleotide phosphate, reduced form (NADPH, 1 mM) and terminated by transferring an aliquot into acetonitrile after different time points. Additionally, the NADPH-independent degradation is monitored in incubations without NADPH, terminated at the last time point. The [%] remaining test compound after NADPH independent incubation is reflected by the parameter c(control) (metabolic stability). The quenched incubations are pelleted by centrifugation (10,000 g, 5 min). An aliquot of the supernatant is assayed by LC-MS/MS for the amount of parent compound.
(§3) The half-life (t1/2 INVITRO) is determined by the slope of the semilogarithmic plot of the concentration-time profile. The intrinsic clearance (CL_[sequence]) is calculated by considering the amount of protein in the incubation: CL_[sequence] [μl/min/mg protein]=(In 2/(half-life [min]*protein content [mg/ml]))*1,000.
The conditions of series [2]: microsomes.
Method: as §1, §2, §3
Series [3] deals with Neutrophil elastase activity in U937 cells. The experiment in a line: Determination of neutrophil elastase activity in U937 cytosolic lysate preparation after incubation with test compound. It counts as cell-based. Particulars: Homo sapiens, U-937, read-out: Reduction of NE-activity in U937 cells IC50. As to the method: Determination of Neutrophil Elastase Activity in U937 Cytosolic Lysate Preparation after Incubation with Test Compound
Optiplate 384F were purchased from PerkinElmer (Prod. No. #6007270). 24 well Nunclon cell culture plates (No. 142475) and 96 well plates (No. 267245) were from Nunc. Dimethylsulfoxid (DMSO) was from Sigma (Prod. No. D8418). Nonidet-P40 (NP40) was from USBiological (Prod. No. N3500)
Substrate, specific for Neutrophil elastase, was from Bachem (MeOSuc-Ala-Ala-Pro-Val-AMC; Prod. No. 1-1270).
Human neutrophil elastase was from Calbiochem (Prod. No. 324681)
Tris-buffer (100 mM Tris; 1M NaCL; pH 7.5)
Tris-buffer+HSA 0.1%; Human Serum Albumin from Calbiochem (Cat#. 126658)
Serine-protease buffer (20 mM Tris; 100 mM NaCL; pH 7.5)+0.1% HSA
Serine protease lysis buffer: 20 mM Tris-HCL; 100 mM NaCl pH 7.5; +0.2% Nonidet-P40;
PBS: phosphate buffered saline, without Ca and Mg, from Gibco
U937 from ECACC (Cat. No. 85011440) cultured in suspension at 37° C. and 5% CO2.
Cell density: 0.2-1 Mio. Cells/ml.
Medium: RPMI1640 GlutaMAX (No. 61870) with 10% FCS from Gibco
Cell Seeding and Treatment:
Compounds in 100% DMSO were diluted in Medium (—FCS) with 10% DMSO and further diluted according to the experiment planned.
20 μl of the compound solution was transferred in the respective wells of the 24 well plate and diluted with 2 ml cell suspension/well containing […] (final concentration of DMSO=0.1%). Compound dilution factor=100
Compounds (up to 7 concentrations) were tested in triplicates with 3 wells for the DMSO 0.1% control, incubated for 48 hours without medium change at 37° C., 5% CO2 and 95% relative humidity.
Cell Harvesting and Cell Lysate:
Transfer the cell suspension in 2.2 ml Eppendorf cups. Separate cells from medium by centrifugation (400×g; 5 min; RT); discard the supernatant. Resuspend in 1 ml PBS; centrifugation (400×g; 5 min; RT); wash cells twice with PBS. Add 100 μl Serin lysis buffer (ice cold) to the cell pellet; resuspend the pellet and store on ice for 15 minutes. Remove debris by centrifugation at 15000×g for 10 min at 4° C. Transfer 80-100 μl lysate supernatant in 96 well plate and store immediately at −80° C.
Neutrophil Elastase Activity Assay:
Frozen lysates were thawn at 37° C. for 10 minutes and stored on ice. Protein content was determined with Bradford protein assay. Lysates were diluted to 0.2-0.5 mg/ml protein in serine protease buffer+HSA.
Standard: NE (100 μg/ml stock solution in Tris-buffer; stored at −80° C.) was diluted in Tris-buffer+HSA to 750 ng/ml, and further serially diluted 1:2 for the standard curve.
Buffer, blank, standard and lysate samples were transferred into 384 well plate
Blank: 5 μl Tris-buffer+10 μl Tris-buffer+HSA+5 μl Substrate
Standard: 5 μl Tris-buffer+10 μl NE (diff. conc.)+5 μl Substrate
Lysate: 5 μl Tris-buffer+10 μl Lysat+[…] Substrate
The increase in fluorescence (Ex360 nm/Em 460 nm) is determined over 30 minutes with a Molecular Device Spectramax M5 Fluorescence Reader. Kinetic Reduction (Vmax units/sec); 4 vmax points. The amount of neutrophil elastase (ng/ml) is calculated using the standard curve and the Spectramax software. The result is interpolated to ng/mg lysate protein using excel formula functions. […] IC50 is calculated using Graphpad Prism; nonlinear fitting (log(inhibitor) vs. response—Variable slope).

pIC50: −log10 of the molar value. Where two headings read alike, the source gives them in different places.

With `CN1C(=O)Cc2ccc(-c3ccc(CC(C#N)NC(=O)[C@H]4N[C@@H]5CC[C@H]4C5)c(F)c3)cc21` (some centres unmarked) [Example 15], the “In vitro stability in human liver microsome incubations t½” value (shortened to “In vitro stability”) in series [1] stood at 2.17 h. Regarding `N#Cc1ccc(-c2ccc(C[C@@H](C#N)NC(=O)[C@H]3N[C@H]4C[C@@H]3[C@@H]3C[C@@H]34)c(F)c2)s1` [Example 40], the “In vitro stability” value in series [2] was more than 2.17 h. As for `N#CC(Cc1ccc(-c2cnn(-c3ccccc3)c2)cc1F)NC(=O)[C@H]1N[C@@H]2CC[C@H]1C2` (some centres unmarked) [Example 78], the “In vitro stability” value in series [1] stood at 2.17 h. For the molecule `N#C[C@H](Cc1ccc(-c2cc(C(=O)N3CCn4nccc4C3)co2)cc1F)NC(=O)[C@H]1N[C@@H]2CC[C@H]1C2` [Example 240], in series [2], the “In vitro stability” value was found to be 1.83 h. As to `CS(=O)(=O)c1ccc(-c2ccc(C[C@@H](C#N)NC(=O)[C@H]3N[C@@H]4CC[C@H]3C4)c(F)c2)cc1OCC(F)F` [Example 252], the “In vitro stability” value in series [1] stood at 2.17 h. As a reminder, the pIC50 is the negative decadic logarithm of the IC50, by convention in mol/L. Consider `N#C[C@H](Cc1ccc(N2CCCN3CCCC3C2)cc1F)NC(=O)[C@H]1N[C@@H]2CC[C@H]1C2` (some centres unmarked) [Example 271], for which the negative logarithm of the IC50 (pIC50) in series [3] is 8.77. Further, in series [1], the “In vitro stability” value came out at 2.17 h. As to `CS(=O)(=O)c1cc(OCC(F)(F)F)cc(-c2ccc(C[C@@H](C#N)NC(=O)[C@H]3N[C@@H]4CC[C@H]3C4)c(F)c2)c1` [Example 276], in series [1], the “In vitro stability” value amounted to 2.17 h. Regarding `N#C[C@H](Cc1ccc(N2CC3CCN(C4CCOC4)C3C2)cc1F)NC(=O)[C@H]1N[C@@H]2CC[C@H]1C2` (some centres unmarked) [Example 348], the pIC50 in series [3] is 8.70. Moreover, in series [1], the “In vitro stability” value was determined as 2.17 h. Regarding `CN1CCC2(C=C(c3ccc(C[C@@H](C#N)NC(=O)[C@H]4N[C@@H]5CC[C@H]4C5)c(F)c3)C2)CC1` [Example 359], the pIC50 in series [3] is 8.54.
